What all share (experiment): KinomeScan profiling
Holding throughout (format): binding

Assay [1] addresses T1, ABL1(E255K)-phosphorylated (Homo sapiens, UniProt P00519, E255K).
T1 construct: purchased KinomeScan®
The settings on record: read-out: % control. The method, boiled down:
(§1)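 Normalised RLU (% control; DMSO 100%, positive control 0%) was measured for compounds dosed at 1 μM over 468 kinases, active cut-off <35%.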

A further assay addresses T2, AKT1 (Homo sapiens, UniProt P31749).
T2 construct: purchased KinomeScan®
The settings on record: AKT1, 1 μM; read-out: % control. A digest of the protocol:
as §1

The next assay addresses T3, MAP3K15 (Homo sapiens, UniProt Q6ZN16).
T3 sequence (Q6ZN16 1-1313): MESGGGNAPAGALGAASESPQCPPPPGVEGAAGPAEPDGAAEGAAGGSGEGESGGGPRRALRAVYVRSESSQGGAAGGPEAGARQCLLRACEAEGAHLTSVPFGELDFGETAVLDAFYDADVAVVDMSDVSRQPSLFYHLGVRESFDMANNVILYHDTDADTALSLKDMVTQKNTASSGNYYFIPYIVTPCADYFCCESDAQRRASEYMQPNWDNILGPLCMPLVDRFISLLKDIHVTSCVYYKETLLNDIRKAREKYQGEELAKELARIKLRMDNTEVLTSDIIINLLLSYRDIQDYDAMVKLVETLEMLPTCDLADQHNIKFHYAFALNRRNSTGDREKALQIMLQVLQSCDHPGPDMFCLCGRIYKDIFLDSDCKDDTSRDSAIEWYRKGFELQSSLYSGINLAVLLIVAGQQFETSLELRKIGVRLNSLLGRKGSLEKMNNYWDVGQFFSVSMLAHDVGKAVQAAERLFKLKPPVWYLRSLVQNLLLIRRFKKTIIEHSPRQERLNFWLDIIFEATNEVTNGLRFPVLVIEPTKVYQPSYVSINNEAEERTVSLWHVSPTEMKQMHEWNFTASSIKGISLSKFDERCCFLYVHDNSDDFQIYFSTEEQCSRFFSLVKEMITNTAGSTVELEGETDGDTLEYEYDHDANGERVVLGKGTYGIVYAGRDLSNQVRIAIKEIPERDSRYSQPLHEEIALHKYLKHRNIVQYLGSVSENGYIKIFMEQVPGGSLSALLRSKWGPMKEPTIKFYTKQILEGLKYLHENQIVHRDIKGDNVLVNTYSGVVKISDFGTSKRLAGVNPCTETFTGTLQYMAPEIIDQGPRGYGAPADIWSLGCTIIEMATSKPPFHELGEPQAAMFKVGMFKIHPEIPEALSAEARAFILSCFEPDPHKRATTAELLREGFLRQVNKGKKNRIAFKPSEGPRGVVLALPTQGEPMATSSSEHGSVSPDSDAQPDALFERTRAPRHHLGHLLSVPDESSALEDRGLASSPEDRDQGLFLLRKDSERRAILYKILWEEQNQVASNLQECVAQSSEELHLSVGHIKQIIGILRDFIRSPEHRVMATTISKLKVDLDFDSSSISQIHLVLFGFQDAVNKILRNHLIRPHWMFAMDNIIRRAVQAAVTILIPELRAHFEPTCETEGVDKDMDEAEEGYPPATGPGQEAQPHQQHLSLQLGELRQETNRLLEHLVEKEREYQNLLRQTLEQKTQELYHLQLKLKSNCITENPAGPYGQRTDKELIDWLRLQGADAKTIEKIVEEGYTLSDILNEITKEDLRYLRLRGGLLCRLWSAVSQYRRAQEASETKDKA
The settings on record: MAP3K15, 1 μM; read-out: % control. The method, boiled down: as §1

Another assay deals with T4, SGK (Homo sapiens, UniProt O00141).
T4 construct: purchased KinomeScan® (panel service)
T4 sequence (O00141 1-431): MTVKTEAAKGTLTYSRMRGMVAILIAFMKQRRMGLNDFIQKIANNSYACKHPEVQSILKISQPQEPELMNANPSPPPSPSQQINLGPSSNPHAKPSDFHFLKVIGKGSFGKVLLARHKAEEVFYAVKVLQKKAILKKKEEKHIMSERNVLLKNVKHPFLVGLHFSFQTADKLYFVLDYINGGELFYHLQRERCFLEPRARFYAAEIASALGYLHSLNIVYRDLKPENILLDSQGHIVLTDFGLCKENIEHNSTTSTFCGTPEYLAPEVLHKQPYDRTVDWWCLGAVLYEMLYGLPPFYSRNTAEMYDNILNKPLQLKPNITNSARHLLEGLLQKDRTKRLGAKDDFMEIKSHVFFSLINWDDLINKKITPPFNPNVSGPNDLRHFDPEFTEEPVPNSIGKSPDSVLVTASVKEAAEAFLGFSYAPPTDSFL
The settings on record: read-out: % control. A digest of the protocol: as §1

In a further assay the target is TIE2 (Homo sapiens, UniProt Q02763). The note with it: TIE2, 1 μM; read-out: % control. The method, boiled down:
as §1

T1 sequence (P00519 whole entry E255K): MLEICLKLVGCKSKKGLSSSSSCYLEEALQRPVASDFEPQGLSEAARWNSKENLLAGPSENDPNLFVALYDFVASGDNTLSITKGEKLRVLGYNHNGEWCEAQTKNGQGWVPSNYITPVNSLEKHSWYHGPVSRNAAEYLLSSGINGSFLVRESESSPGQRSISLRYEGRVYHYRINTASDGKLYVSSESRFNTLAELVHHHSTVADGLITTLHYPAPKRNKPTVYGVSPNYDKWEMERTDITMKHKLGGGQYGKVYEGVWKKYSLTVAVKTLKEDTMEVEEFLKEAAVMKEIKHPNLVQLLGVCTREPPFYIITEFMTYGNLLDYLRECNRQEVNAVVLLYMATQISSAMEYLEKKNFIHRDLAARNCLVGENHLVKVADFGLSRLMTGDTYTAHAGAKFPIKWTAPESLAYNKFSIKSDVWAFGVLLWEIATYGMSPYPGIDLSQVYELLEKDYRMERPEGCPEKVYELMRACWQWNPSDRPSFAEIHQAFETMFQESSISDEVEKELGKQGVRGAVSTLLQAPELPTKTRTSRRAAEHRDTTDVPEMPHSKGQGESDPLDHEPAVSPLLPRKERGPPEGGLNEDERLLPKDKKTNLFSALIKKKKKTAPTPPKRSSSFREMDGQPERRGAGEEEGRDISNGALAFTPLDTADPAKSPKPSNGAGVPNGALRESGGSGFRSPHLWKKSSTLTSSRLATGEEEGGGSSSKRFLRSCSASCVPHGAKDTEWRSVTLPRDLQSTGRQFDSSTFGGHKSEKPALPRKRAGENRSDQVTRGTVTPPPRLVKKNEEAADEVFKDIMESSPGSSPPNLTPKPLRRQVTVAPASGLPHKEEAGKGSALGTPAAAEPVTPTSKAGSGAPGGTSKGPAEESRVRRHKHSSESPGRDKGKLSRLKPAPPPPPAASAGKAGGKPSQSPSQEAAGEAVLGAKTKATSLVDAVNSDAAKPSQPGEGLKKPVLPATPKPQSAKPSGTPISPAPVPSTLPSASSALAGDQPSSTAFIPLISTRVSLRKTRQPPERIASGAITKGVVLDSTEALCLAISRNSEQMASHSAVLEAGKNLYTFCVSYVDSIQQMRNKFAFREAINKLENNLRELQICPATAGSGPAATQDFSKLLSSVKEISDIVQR
TIE2, sequence (Q02763 23-1124): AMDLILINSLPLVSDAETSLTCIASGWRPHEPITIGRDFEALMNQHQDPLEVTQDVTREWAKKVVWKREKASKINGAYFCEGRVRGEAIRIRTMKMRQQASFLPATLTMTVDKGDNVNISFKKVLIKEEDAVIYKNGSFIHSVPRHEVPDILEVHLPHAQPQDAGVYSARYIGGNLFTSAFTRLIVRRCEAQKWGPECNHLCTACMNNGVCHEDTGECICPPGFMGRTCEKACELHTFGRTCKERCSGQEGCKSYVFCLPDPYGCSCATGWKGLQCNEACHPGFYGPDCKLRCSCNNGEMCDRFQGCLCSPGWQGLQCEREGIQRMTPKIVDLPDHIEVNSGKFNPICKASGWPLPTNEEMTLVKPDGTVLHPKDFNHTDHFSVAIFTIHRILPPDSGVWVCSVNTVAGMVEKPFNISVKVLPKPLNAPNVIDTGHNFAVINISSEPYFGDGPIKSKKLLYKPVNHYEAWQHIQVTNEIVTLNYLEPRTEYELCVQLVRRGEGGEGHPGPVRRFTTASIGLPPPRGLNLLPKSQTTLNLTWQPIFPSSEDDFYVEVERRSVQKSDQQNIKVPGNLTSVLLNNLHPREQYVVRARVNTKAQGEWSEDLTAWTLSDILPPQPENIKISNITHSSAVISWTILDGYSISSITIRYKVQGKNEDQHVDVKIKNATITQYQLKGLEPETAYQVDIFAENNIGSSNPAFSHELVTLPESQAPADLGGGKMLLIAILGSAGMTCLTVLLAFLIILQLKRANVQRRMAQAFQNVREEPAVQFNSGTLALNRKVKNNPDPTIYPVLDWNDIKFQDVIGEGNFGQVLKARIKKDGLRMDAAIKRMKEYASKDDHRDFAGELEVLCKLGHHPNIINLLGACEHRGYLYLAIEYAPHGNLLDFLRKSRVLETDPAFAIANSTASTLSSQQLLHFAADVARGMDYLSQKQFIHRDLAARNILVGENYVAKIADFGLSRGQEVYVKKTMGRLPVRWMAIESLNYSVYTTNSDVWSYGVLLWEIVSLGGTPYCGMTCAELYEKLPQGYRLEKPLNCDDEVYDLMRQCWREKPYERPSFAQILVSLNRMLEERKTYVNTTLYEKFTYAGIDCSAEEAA
T2 sequence (P31749 whole entry): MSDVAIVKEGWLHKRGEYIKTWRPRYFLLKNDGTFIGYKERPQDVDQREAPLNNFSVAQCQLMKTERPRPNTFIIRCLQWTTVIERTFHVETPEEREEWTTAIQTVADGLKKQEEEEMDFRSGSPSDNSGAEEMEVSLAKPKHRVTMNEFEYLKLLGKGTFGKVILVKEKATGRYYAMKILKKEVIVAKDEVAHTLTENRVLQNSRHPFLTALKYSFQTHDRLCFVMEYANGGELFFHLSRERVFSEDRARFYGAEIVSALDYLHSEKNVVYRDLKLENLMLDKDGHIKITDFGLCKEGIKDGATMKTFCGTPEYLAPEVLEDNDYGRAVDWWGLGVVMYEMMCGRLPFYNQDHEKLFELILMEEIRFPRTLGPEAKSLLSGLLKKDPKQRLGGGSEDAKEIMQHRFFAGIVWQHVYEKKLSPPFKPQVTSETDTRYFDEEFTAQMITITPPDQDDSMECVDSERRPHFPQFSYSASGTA

With `CNc1c(-c2ccc(C(=O)N3CCC(N4CCOCC4)CC3)cc2)cnc2[nH]cc(Cl)c12` [Compound 96, (4-(3-chloro-4-(methylamino)-1H-pyrrolo[2,3-b]pyridin-5-yl)phenyl)(4-morpholinopiperidin-1-yl)methanone], the remaining binding at 1 µM in assay [1] turned out to be 92%; at AKT1, 100%; at MAP3K15 it was 1.8%; at SGK, 7.3%; on TIE2, 81%.

Take `O=C(c1ccc(-c2cnc3[nH]cc(Cl)c3c2NC2CCCC2)cc1)N1CCC(N2CCOCC2)CC1` [Compound 101, (4-(3-chloro-4-(cyclopentylamino)-1H-pyrrolo[2,3-b]pyridin-5-yl)phenyl)(4-morpholinopiperidin-1-yl)methanone]: the remaining binding at 1 µM came out at 100% in assay [1]; 96% at AKT1; 100% on MAP3K15; 86% on SGK; 97% on TIE2.

As to `CNc1c(-c2cnn([C@H]3CCN(C(C)=O)C[C@@H]3F)c2)cnc2[nH]cc(Cl)c12` [Compound 77, 1-((3S,4S)-4-(4-(3-chloro-4-(methylamino)-1H-pyrrolo[2,3-b]pyridin-5-yl)-1H-pyrazol-1-yl)-3-fluoropiperidin-1-yl)ethan-1-one], the remaining binding at 1 µM amounted to 73% in assay [1]; 100% on AKT1; 1.4% on MAP3K15; 17% on SGK; 80% on TIE2.

Values taken from patent US12275731B2, “Azaindole inhibitors of wild-type and mutant forms of LRRK2” (DANA-FARBER CANCER INSTITUTE, INC., priority 2018, dated 2025).
